In brackets after ≈: the same amount, converted by molar mass.
Tests used:
Type in all cases: functional
[1] = test system: Staphylococcus aureus; experiment: Antibacterial activity against Staphylococcus aureus ATCC 25923 assessed as reduction in bacterial growth incubated for 24 hrs by CLSI based serial dilution method
[2] = test system: Staphylococcus aureus; experiment: Antibacterial activity against Staphylococcus aureus ATCC 29213 assessed as reduction in bacterial growth incubated for 24 hrs by CLSI based serial dilution method
[3] = test system: Acinetobacter; experiment: Antibacterial activity against Acinetobacter sp. 103 assessed as reduction in bacterial growth incubated for 24 hrs by CLSI based serial dilution method
[4] = test system: Acinetobacter; experiment: Antibacterial activity against Acinetobacter sp. 121 assessed as reduction in bacterial growth incubated for 24 hrs by CLSI based serial dilution method
[5] = test system: Acinetobacter; experiment: Antibacterial activity against Acinetobacter sp. 122 assessed as reduction in bacterial growth incubated for 24 hrs by CLSI based serial dilution method
[6] = test system: Acinetobacter; experiment: Antibacterial activity against Acinetobacter sp. 126 assessed as reduction in bacterial growth incubated for 24 hrs by CLSI based serial dilution method
[7] = test system: Pseudomonas aeruginosa; experiment: Antibacterial activity against Pseudomonas aeruginosa ATCC 27853 assessed as reduction in bacterial growth incubated for 24 hrs by CLSI based serial dilution method
[8] = test system: Enterococcus faecalis; experiment: Antibacterial activity against Enterococcus faecalis ATCC 29212 assessed as reduction in bacterial growth incubated for 24 hrs by CLSI based serial dilution method
[9] = test system: Staphylococcus aureus; experiment: Antibacterial activity against methicillin-resistant Staphylococcus aureus 114 assessed as reduction in bacterial growth incubated for 24 hrs by CLSI based serial dilution method
[10] = test system: Staphylococcus aureus; experiment: Antibacterial activity against methicillin-resistant Staphylococcus aureus 124 assessed as reduction in bacterial growth incubated for 24 hrs by CLSI based serial dilution method
[11] = test system: Staphylococcus aureus; experiment: Antibacterial activity against methicillin-resistant Staphylococcus aureus 58 assessed as reduction in bacterial growth incubated for 24 hrs by CLSI based serial dilution method
[12] = test system: Staphylococcus aureus; experiment: Antibacterial activity against methicillin-resistant Staphylococcus aureus 59 assessed as reduction in bacterial growth incubated for 24 hrs by CLSI based serial dilution method
[13] = test system: Escherichia coli; experiment: Antibacterial activity against Escherichia coli ATCC 35218 assessed as reduction in bacterial growth incubated for 24 hrs by CLSI based serial dilution method
[14] = test system: Escherichia coli; experiment: Antibacterial activity against Escherichia coli ATCC 25922 assessed as reduction in bacterial growth incubated for 24 hrs by CLSI based serial dilution method
[15] = test system: Klebsiella pneumoniae; experiment: Antibacterial activity against Klebsiella pneumoniae ATCC BAA-1705 assessed as reduction in bacterial growth incubated for 24 hrs by CLSI based serial dilution method
[16] = test system: Klebsiella pneumoniae; experiment: Antibacterial activity against Klebsiella pneumoniae ATCC BAA-1706 assessed as reduction in bacterial growth incubated for 24 hrs by CLSI based serial dilution method
[17] = test system: Staphylococcus aureus; experiment: Antibacterial activity against Staphylococcus aureus assessed as reduction in bacterial growth incubated for 24 hrs in presence of oxacillin by CLSI based serial dilution method
[18] = test system: Staphylococcus aureus; experiment: Antibacterial activity against methicillin-resistant Staphylococcus aureus 114 assessed as reduction in bacterial growth incubated for 24 hrs in presence of oxacillin by CLSI based serial dilution method
[19] = test system: Staphylococcus aureus; experiment: Antibacterial activity against methicillin-resistant Staphylococcus aureus 124 assessed as reduction in bacterial growth incubated for 24 hrs in presence of oxacillin by CLSI based serial dilution method
[20] = test system: Staphylococcus aureus; experiment: Antibacterial activity against methicillin-resistant Staphylococcus aureus 58 assessed as reduction in bacterial growth incubated for 24 hrs in presence of oxacillin by CLSI based serial dilution method
[21] = test system: Staphylococcus aureus; experiment: Antibacterial activity against methicillin-resistant Staphylococcus aureus 59 assessed as reduction in bacterial growth incubated for 24 hrs in presence of oxacillin by CLSI based serial dilution method
[22] = test system: Staphylococcus aureus; experiment: Antibacterial activity against Staphylococcus aureus assessed as fractional inhibitory concentration incubated for 24 hrs in presence of oxacillin by CLSI based serial dilution method
[23] = test system: Staphylococcus aureus; experiment: Antibacterial activity against methicillin-resistant Staphylococcus aureus 114 assessed as fractional inhibitory concentration incubated for 24 hrs in presence of oxacillin by CLSI based serial dilution method
[24] = test system: Staphylococcus aureus; experiment: Antibacterial activity against methicillin-resistant Staphylococcus aureus 124 assessed as fractional inhibitory concentration incubated for 24 hrs in presence of oxacillin by CLSI based serial dilution method
[25] = test system: Staphylococcus aureus; experiment: Antibacterial activity against methicillin-resistant Staphylococcus aureus 58 assessed as fractional inhibitory concentration incubated for 24 hrs in presence of oxacillin by CLSI based serial dilution method
[26] = test system: Staphylococcus aureus; experiment: Antibacterial activity against methicillin-resistant Staphylococcus aureus 59 assessed as fractional inhibitory concentration incubated for 24 hrs in presence of oxacillin by CLSI based serial dilution method
[27] = test system: Staphylococcus aureus; experiment: Antibacterial activity against Staphylococcus aureus assessed as fractional inhibitory concentration index incubated for 24 hrs in presence of oxacillin by CLSI based serial dilution method
[28] = test system: Staphylococcus aureus; experiment: Antibacterial activity against methicillin-resistant Staphylococcus aureus 114 assessed as fractional inhibitory concentration index incubated for 24 hrs in presence of oxacillin by CLSI based serial dilution method
[29] = test system: Staphylococcus aureus; experiment: Antibacterial activity against methicillin-resistant Staphylococcus aureus 124 assessed as fractional inhibitory concentration index incubated for 24 hrs in presence of oxacillin by CLSI based serial dilution method
[30] = test system: Staphylococcus aureus; experiment: Antibacterial activity against methicillin-resistant Staphylococcus aureus 58 assessed as fractional inhibitory concentration index incubated for 24 hrs in presence of oxacillin by CLSI based serial dilution method
[31] = test system: Staphylococcus aureus; experiment: Antibacterial activity against methicillin-resistant Staphylococcus aureus 59 assessed as fractional inhibitory concentration index incubated for 24 hrs in presence of oxacillin by CLSI based serial dilution method

C=C(C)[C@@H]1CC[C@]2(C(=O)O)CC[C@]3(C)[C@H](CC[C@@H]4[C@@]5(C)CCC(=O)C(C)(C)[C@@H]5[C@H](O)C[C@]43C)[C@@H]12
MIC [1]: 16 µg/mL (≈ 34 µM) | MIC [2]: 32 µg/mL (≈ 68 µM) | MIC [3]: > 1020 µg/mL | MIC [4]: > 1020 µg/mL | MIC [5]: > 1020 µg/mL | MIC [6]: > 1020 µg/mL | MIC [7]: > 1020 µg/mL | MIC [8]: 32 µg/mL (≈ 68 µM) | MIC [9]: 32 µg/mL (≈ 68 µM) | MIC [10]: 32 µg/mL (≈ 68 µM) | MIC [11]: 32 µg/mL (≈ 68 µM) | MIC [12]: 16 µg/mL (≈ 34 µM) | MIC [13]: > 1020 µg/mL | MIC [14]: > 1020 µg/mL | MIC [15]: > 1020 µg/mL | MIC [16]: > 1020 µg/mL | MIC [17]: 8 µg/mL | MIC [18]: 16 µg/mL | MIC [19]: 32 µg/mL | MIC [20]: 16 µg/mL | MIC [21]: 8 µg/mL | FIC [22]: 0.25 | FIC [23]: 0.5 | FIC [24]: 1 | FIC [25]: 0.5 | FIC [26]: 0.5 | fractional inhibitory concentration index (FICI) [27]: 0.49 | fractional inhibitory concentration index (FICI) [28]: 0.53 | fractional inhibitory concentration index (FICI) [29]: 2 | fractional inhibitory concentration index (FICI) [30]: 1 | fractional inhibitory concentration index (FICI) [31]: 0.75

C[C@@H](O)[C@H]1C(=O)N2C(C(=O)O)=C(S[C@@H]3CN[C@H](C(=O)N(C)C)C3)[C@H](C)[C@H]12 [MEROPENEM]
MIC [3]: 64 µg/mL (≈ 167 µM) | MIC [4]: 64 µg/mL (≈ 167 µM) | MIC [5]: 128 µg/mL (≈ 334 µM) | MIC [6]: 128 µg/mL (≈ 334 µM) | MIC [7]: 0.12 µg/mL (≈ 0.313 µM) | MIC [13]: 0.008 µg/mL (≈ 0.0209 µM) | MIC [14]: 0.008 µg/mL (≈ 0.0209 µM) | MIC [15]: 8 µg/mL (≈ 20.9 µM)

Cc1onc(-c2ccccc2)c1C(=O)N[C@@H]1C(=O)N2[C@@H]1SC(C)(C)[C@@H]2C(=O)O [OXACILLIN]
MIC [2]: 0.12 µg/mL (≈ 0.299 µM) | MIC [8]: 8 µg/mL (≈ 19.9 µM) | MIC [9]: 16 µg/mL (≈ 39.9 µM) | MIC [10]: 16 µg/mL (≈ 39.9 µM) | MIC [11]: 16 µg/mL (≈ 39.9 µM) | MIC [12]: 16 µg/mL (≈ 39.9 µM)
